Structures can show the parent of a compound that is named as a salt. Where two headings read alike, the source gives them in different places.
Legend:
[1] = tested on: NCI-H292 lung cancer cells; assay: FDA drug screening, complete media vs cholesterol-free media with simvastatin (TABLE 2); type: cell-based, human
[2] = tested on: NCI-H292 lung cancer cells; assay: FDA drug screening, complete media vs cholesterol-free media without statin (TABLE 1); type: cell-based, human
[3] = NCI-H292 cells, FDA library drug in cholesterol-free media with simvastatin 0.04 μM
[4] = NCI-H292 cells, FDA library drug in complete media
[5] = complete media vs cholesterol-free media + simvastatin (0.04 μM), >0 enhanced anti-cancer activity, about 0 neutral, <0 antagonist
[6] = Complete minus Cholesterol-free, >0 enhanced anti-cancer activity, about 0 neutral, <0 antagonist
[7] = NCI-H292 cells, cholesterol-free media without statin, FDA drug library screen
[8] = NCI-H292 cells, complete media, FDA drug library screen
[9] = NCI-H292 cells, cholesterol-free media with simvastatin 0.04 μM, FDA drug library screen (TABLE 2)
[10] = NCI-H292 cells, complete media, FDA drug library screen (TABLE 2)
[11] = complete media minus cholesterol-free media + simvastatin (0.04 μM), >0 enhanced anti-cancer activity, about 0 neutral, <0 antagonist
[12] = Complete minus Cholesterol-free, greater than 0 enhanced anti-cancer activity, about 0 neutral, below 0 antagonists
[13] = NCI-H292 cells in cholesterol-free media without statin
[14] = NCI-H292 cells in complete media
[15] = NCI-H292 cells, drug in cholesterol-free media with simvastatin 0.04 μM
[16] = NCI-H292 cells, drug in complete media
[17] = Complete minus Cholesterol-free, greater than 0 enhanced anti-cancer activity, about 0 neutral, below 0 antagonist
[18] = NCI-H292 cells, FDA drug library screen, cholesterol-free media without statin
[19] = NCI-H292 cells, FDA drug library screen, complete media
[20] = NCI-H292 cells, FDA drug library screen, cholesterol-free media with simvastatin 0.04 μM
[21] = complete media minus cholesterol-free media + simvastatin, >0 enhanced anti-cancer activity, about 0 neutral, <0 antagonist
[22] = complete vs cholesterol-free media, >0 enhanced anti-cancer activity, about 0 neutral, <0 antagonist
[23] = NCI-H292 cells, cholesterol-free media without statin
[24] = complete vs cholesterol-free media, greater than 0 enhanced anti-cancer activity, about 0 neutral, below 0 antagonists
[25] = complete vs cholesterol-free media, […]

For `CC(=O)N(CC(O)CO)c1c(I)c(C(=O)NCCO)c(I)c(C(=O)NCC(O)CO)c1I` (stereo not shown) [Ioxilan], the “Cholesterol-free media + simvastatin (0.04 μM)” value [1, 3] was 1.221, the “Complete Media” value [1, 4] was 0.868 and the Difference [1, 5] was −0.35. For the same molecule, the Difference [2, 6] was 0.04, the Cholesterol-free [2, 7] was 1.015 and the Complete [2, 8] was 1.05.

With `CN(C)[C@@H]1C(O)=C(C(N)=O)C(=O)[C@@]2(O)C(O)=C3C(=O)c4c(O)cccc4[C@@](C)(O)[C@H]3[C@H](O)[C@@H]12` [Oxytetracycline (hydrochloride)] the “Cholesterol-free media + simvastatin (0.04 μM)” value [1, 9] was 0.991, the “Complete Media” value [1, 10] was 0.9652 and the Difference [1, 11] was −0.03. It also gave a Difference [2, 12] of −0.72, a Cholesterol-free [2, 13] of 1.728 and a Complete [2, 14] of 1.007.

With `COc1ccc2[nH]c([S+]([O-])Cc3ncc(C)c(OC)c3C)nc2c1` (stereo not shown) [Omeprazole] the “Cholesterol-free media + simvastatin (0.04 μM)” value [1, 15] was 0.8585, the “Complete Media” value [1, 16] was 0.6883 and the Difference [1, 5] was −0.17. It also gave a Difference [2, 17] of −0.12, a Cholesterol-free [2, 18] of 0.995 and a Complete [2, 19] of 0.8798.

For `CC1(C)CCC(CN2CCN(c3ccc(C(=O)NS(=O)(=O)c4ccc(NCC5CCOCC5)c([N+](=O)[O-])c4)c(Oc4cnc5[nH]ccc5c4)c3)CC2)=C(c2ccc(Cl)cc2)C1` [Venetoclax], the “Cholesterol-free media + simvastatin (0.04 μM)” value [1, 20] was 1.767, the “Complete Media” value [1, 19] was 1.658 and the Difference [1, 5] was −0.11. The Difference [2, 12] was −0.58, the Cholesterol-free [2, 13] was 1.517 and the Complete [2, 14] was 0.9332.

With `CC1=C(C)C(=O)C(C(CCCCCC(=O)O)c2ccccc2)=C(C)C1=O` (stereo not shown) [Seratrodast] the “Cholesterol-free media + simvastatin (0.04 μM)” value [1, 20] was 0.9305, the “Complete Media” value [1, 19] was 1.335 and the Difference [1, 21] was 0.40. It also gave a Difference [2, 6] of 0.00, a Cholesterol-free [2, 7] of 0.9876 and a Complete [2, 8] of 0.9904.

With `Cc1cn([C@@H]2C[C@@H](O)[C@H](CO)O2)c(=O)[nH]c1=O` [Telbivudine] the “Cholesterol-free media + simvastatin (0.04 μM)” value [1, 9] was 0.8748, the “Complete Media” value [1, 10] was 0.8605 and the Difference [1, 11] was −0.01. For the same molecule, the Difference [2, 6] was −0.03, the Cholesterol-free [2, 7] was 0.8613 and the Complete [2, 8] was 0.8275.

For `CC(C)(Oc1ccc(C(=O)c2ccc(Cl)cc2)cc1)C(=O)[O-].C[N+](C)(C)CCO` [Choline Fenofibrate], the “Cholesterol-free media + simvastatin (0.04 μM)” value [1, 20] was 1.101, the “Complete Media” value [1, 19] was 1.295 and the Difference [1, 21] was 0.19. The Difference [2, 12] was −0.65, the Cholesterol-free [2, 13] was 1.252 and the Complete [2, 14] was 0.6045.

`N[C@@H](Cc1cc(I)c(Oc2cc(I)c(O)c(I)c2)c(I)c1)C(=O)O` [L-Thyroxine (sodium salt pentahydrate)] was tested, and the “Cholesterol-free media + simvastatin (0.04 μM)” value ([1]; NCI-H292 cells, cholesterol-free media with simvastatin 0.04 μM, cell growth value in FDA drug screen) was 0.8275, the “Complete Media” value ([1]; NCI-H292 cells, complete media, cell growth value in FDA drug screen) was 0.8532 and the Difference [1, 21] was 0.03. For the same molecule, the Difference [2, 17] was −0.15, the Cholesterol-free [2, 18] was 1.238 and the Complete [2, 19] was 1.085.

In the case of `Nc1ncnc2c1ncn2[C@@H]1O[C@H](CO)[C@@H](O)[C@H]1O` [Adenosine], the “Cholesterol-free media + simvastatin (0.04 μM)” value [1, 3] was 1.888, the “Complete Media” value [1, 4] was 1.6 and the Difference [1, 5] was −0.29. It also gave a Difference [2, 17] of −0.14 and a Complete [2, 19] of 0.8055.

`COc1cc2ncnc(Nc3ccc(F)c(Cl)c3)c2cc1OCCCN1CCOCC1` [Gefitinib (hydrochloride)] was tested, and the “Cholesterol-free media + simvastatin (0.04 μM)” value [1, 20] was 0.9234, the “Complete Media” value [1, 19] was 0.8455 and the Difference [1, 5] was −0.08. The Cholesterol-free [2, 7] was 0.6497, the Complete [2, 8] was 0.8718 and the Difference [2, 22] was 0.22.

In the case of `CCc1c2c(nc3ccc(OC(=O)N4CCC(N5CCCCC5)CC4)cc13)-c1cc3c(c(=O)n1C2)COC(=O)[C@]3(O)CC` [Irinotecan], the “Cholesterol-free media + simvastatin (0.04 μM)” value [1, 3] was 0.729, the “Complete Media” value [1, 4] was 0.3631 and the Difference [1, 5] was −0.37. It also gave a Difference [2, 17] of −0.08, a Cholesterol-free [2, 18] of 0.2676 and a Complete [2, 19] of 0.1842.

For `CC1=C(C(=O)O)N2C(=O)[C@@H](NC(=O)[C@H](N)c3ccccc3)[C@H]2SC1` [Cephalexin (monohydrate)], the “Cholesterol-free media + simvastatin (0.04 μM)” value [1, 3] was 1.59, the “Complete Media” value [1, 4] was 0.9161 and the Difference [1, 5] was −0.67. For the same molecule, the Cholesterol-free [2, 23] was 1.506, the Complete ([2]; NCI-H292 cells, complete media) was 1.062 and the Difference [2, 24] was −0.44.

`CC(C)c1cccc(C(C)C)c1O` [Propofol] was tested, and the “Cholesterol-free media + simvastatin (0.04 μM)” value [1] was 1.559, the “Complete Media” value [1] was 1.224 and the Difference [1] was −0.33. The Cholesterol-free [2] was 0.9745, the Complete [2] was 0.7898 and the Difference [2] was −0.18.

For `Cc1cc(N2CCN([C@@H]3CN[C@H](C(=O)N4CCSC4)C3)CC2)n(-c2ccccc2)n1` [Teneligliptin], the “Cholesterol-free media + simvastatin (0.04 μM)” value [1, 20] was 0.6861, the “Complete Media” value [1, 19] was 1.012 and the Difference ([1]; complete media minus cholesterol-free media + simvastatin, […]) was 0.33. It also gave a Cholesterol-free [2, 23] of 1.328, a Complete ([2]; NCI-H292 cells, complete media) of 0.9852 and a Difference [2, 25] of −0.34.

In the case of `Nc1ccc(S(=O)(=O)Nc2ccccn2)cc1` [Sulfapyridine], the “Cholesterol-free media + simvastatin (0.04 μM)” value [1, 20] was 1.045, the “Complete Media” value [1, 19] was 1.844 and the Difference [1, 21] was 0.80. It also gave a Difference [2, 6] of −0.02, a Cholesterol-free [2, 7] of 0.8112 and a Complete [2, 8] of 0.7909.

With `CC(=O)OCC(CCn1cnc2cnc(N)nc21)COC(C)=O` [Famciclovir] the “Cholesterol-free media + simvastatin (0.04 μM)” value [1, 3] was 1.597, the “Complete Media” value [1, 4] was 1.161 and the Difference [1, 5] was −0.44. It also gave a Difference [2, 6] of −0.27, a Cholesterol-free [2, 23] of 1.022 and a Complete ([2]; NCI-H292 cells, complete media) of 0.7509.

`COc1cc(N2CCC(N3CCN(C)CC3)CC2)ccc1Nc1ncc(Cl)c(Nc2ccccc2P(C)(C)=O)n1` [Brigatinib] was tested, and the “Cholesterol-free media + simvastatin (0.04 μM)” value [1, 15] was 0.8361, the “Complete Media” value [1, 16] was 0.6309 and the Difference [1, 5] was −0.21. The Cholesterol-free [2, 7] was 0.5531, the Complete [2, 8] was 0.9482 and the Difference [2, 22] was 0.40.

For `Cn1c(=O)c2c(ncn2CC(=O)O)n(C)c1=O` [Acefylline], the “Cholesterol-free media + simvastatin (0.04 μM)” value [1, 9] was 1.078, the “Complete Media” value [1, 10] was 1.058 and the Difference [1, 11] was −0.02. The Difference [2, 6] was −0.31 and the Cholesterol-free [2, 23] was 1.455.

With `CCN(CC)CCCC(C)Nc1ccnc2cc(Cl)ccc12` (stereo not shown) [Chloroquine] the “Cholesterol-free media + simvastatin (0.04 μM)” value [1] was 2.192, the “Complete Media” value [1] was 0.9997 and the Difference [1] was −1.19. The Cholesterol-free [2] was 1.226, the Complete [2] was 0.9181 and the Difference [2] was −0.31.

With `O=C(CO)[C@@H](O)[C@H](O)[C@H](O)CO` [Fructose] the “Cholesterol-free media + simvastatin (0.04 μM)” value [1, 3] was 2.032, the “Complete Media” value [1, 4] was 1.165 and the Difference [1, 5] was −0.87. The Cholesterol-free [2, 7] was 1.048, the Complete [2, 8] was 1.329 and the Difference [2, 22] was 0.28.

For `CCN(CC)CC(=O)Nc1c(C)cccc1C` [Lidocaine (hydrochloride)], the “Cholesterol-free media + simvastatin (0.04 μM)” value [1, 9] was 0.8862, the “Complete Media” value [1, 10] was 0.8646 and the Difference [1, 11] was −0.02. The Difference [2, 6] was −0.22, the Cholesterol-free [2, 23] was 1.21 and the Complete ([2]; NCI-H292 cells, complete media) was 0.9883.

For `O=C(O)/C=C/C(=O)O` [Fumaric acid], the “Cholesterol-free media + simvastatin (0.04 μM)” value [1, 3] was 1.117, the “Complete Media” value [1, 4] was 0.8401 and the Difference [1, 5] was −0.28. For the same molecule, the Cholesterol-free [2, 23] was 1.029, the Complete ([2]; NCI-H292 cells, complete media) was 0.6691 and the Difference [2, 24] was −0.36.

With Kanamycin (sulfate) the “Cholesterol-free media + simvastatin (0.04 μM)” value [1, 20] was 1.825, the “Complete Media” value [1, 19] was 1.703 and the Difference ([1]; complete media vs cholesterol-free media + simvastatin (0.04 μM), […]) was −0.12. It also gave a Cholesterol-free [2, 23] of 1.851, a Complete ([2]; NCI-H292 cells, complete media) of 1.486 and a Difference [2, 25] of −0.36.

In the case of `CC12CCC(CC1=O)C2(C)C` (stereo not shown) [Camphor], the “Cholesterol-free media + simvastatin (0.04 μM)” value [1, 20] was 1.13, the “Complete Media” value [1, 19] was 0.9969 and the Difference [1, 5] was −0.13. For the same molecule, the Difference [2, 12] was −0.48, the Cholesterol-free [2, 13] was 1.372 and the Complete [2, 14] was 0.8909.
